# Results published in patent publication US20090298781A1, “COMPOUNDS FOR THE INHIBITION OF APOPTOSIS” (CONSEJO SUPERIOR DE, priority 2005, published 2009).
# “And” between values parts separate entries of the source, which are not always exact repeats. Equal entries are not always repeated.
# Tests used:
# Assay type in all cases: cell-based
# Caspase activity, HeLa = assay: Caspase inhibition assay, HeLa; conditions: for % Caspase inhibition / inhibition at 5 µM: 5 μM; for inhibition at 1 µM / inhibition at 5 µM: Homo sapiens
# [1] = system: Caspase activity, U937 cell extracts; assay: Caspase inhibition assay, U937 cell extracts; conditions: for % Caspase inhibition / inhibition at 5 µM: 5 μM; for inhibition at 1 µM / inhibition at 5 µM: Homo sapiens, U-937
# Procedure: (§1) The time-dependent inhibition of caspase induced by the compounds described in this invention was analysed. […] Caspase activity was assayed using Saos-2 or U937 cell extracts and Ac-DEVD-afc (N-acetyl-Asp-Glu-Val-Asp-afc(7-amino-4-trifluoromethyl coumarin)) as substrate (20 μM). Caspase activity was continuously monitored by the liberation of fluorescent afc using a Cytofluor 4000 fluorimeter (excitation 400 nm; emission 508 nm) for 1 hour. The effect of the compounds on the caspase activity was expressed as the percentage of inhibition in the fluorescence signal of treated cells vs. the non-treated cells (control).
# Caspase activity, U2-OS = assay: Caspase inhibition assay, U2-OS; conditions: for % Caspase inhibition / inhibition at 5 µM: 5 μM; for inhibition at 1 µM / inhibition at 5 µM: Homo sapiens, U2OS
# Saos-2 cell line = assay: MTT assay, toxicity (cell viability), Saos-2
# Procedure: (§2) The MTT assay measures cell proliferation as well as reduction in cell viability when metabolic events lead to apoptosis or necrosis. It can also be used to assess the rate of survival of a given cell line when it is incubated in the presence of xenobiotics. The reduction of tetrazolium salts is accepted as a reliable way to analyse cell proliferation. The yellow tetrazolium MTT (3-(4,5-dimethylthiazolyl-2)-2,5-diphenyltetrazolium bromide) is reduced by metabolically active cells and results in the intracellular formation of purple formazan that can be spectrophotometrically measured after solubilisation with DMSO.
# (§3) The MTT assay was used in this invention to assess the toxicity of compounds at different concentrations. To analyse their potential impairment in cell viability, compounds were added to Saos-2 and U937 cell lines at different concentrations and incubated at different times. Results are expressed by percentage cell viability.
# U937 cell line = assay: MTT assay, toxicity (cell viability), U937
# Procedure: as §2, §3
# [2] = system: Caspase activity, Saos-2 cell extracts; assay: Caspase inhibition assay, Saos-2 cell extracts; conditions: for % Caspase inhibition: 5 μM; for inhibition at 1 µM: Homo sapiens
# Procedure: as §1
smiles,measurement,setting,value
"COc1ccccc1CCN(CC(N)=O)C(=O)C1CC(=O)N(CCc2ccc(Cl)cc2Cl)CC(=O)N1CCC(c1ccccc1)c1ccccc1 (stereo not drawn) [I.7, 1-[2-(2,4-Dichlorophenyl)ethyl]-4-(3,3-diphenylpropyl)-3,7-dioxo[1,4]diazepane-5-carboxylic acid carbamoylmethy-[2-(2-methoxyphenyl)ethyl]amide]",% Caspase inhibition,"Caspase activity, HeLa; 24 h",6%
same,% Caspase inhibition,"Caspase activity, HeLa; 48 h",7%
same,% Caspase inhibition,"Caspase activity, HeLa; 72 h",11%
same,% Caspase inhibition,"[1]; U937, 24 h",10%
same,% Caspase inhibition,"[1]; U937, 48 h",8%
same,% Caspase inhibition,"[1]; U937, 72 h",2%
same,% Caspase inhibition,"Caspase activity, U2-OS; 24 h",0%
same,% Caspase inhibition,"Caspase activity, U2-OS; 48 h",31%
same,% Caspase inhibition,"Caspase activity, U2-OS; 72 h",33%
same,% Cell viability,"Saos-2 cell line; Saos-2, 24 h, 1 μM",95%
same,% Cell viability,"Saos-2 cell line; Saos-2, 24 h, 5 μM",99%
same,% Cell viability,"Saos-2 cell line; Saos-2, 24 h, 10 μM",98%
same,% Cell viability,"Saos-2 cell line; Saos-2, 48 h, 1 μM",100%
same,% Cell viability,"Saos-2 cell line; Saos-2, 48 h, 5 μM",100%
same,% Cell viability,"Saos-2 cell line; Saos-2, 48 h, 10 μM",100%
same,% Cell viability,"U937 cell line; U937, 24 h, 1 μM",99%
same,% Cell viability,"U937 cell line; U937, 24 h, 5 μM",95%
same,% Cell viability,"U937 cell line; U937, 24 h, 10 μM",93%
same,% Cell viability,"U937 cell line; U937, 48 h, 1 μM",100%
same,% Cell viability,"U937 cell line; U937, 48 h, 5 μM",100%
same,% Cell viability,"U937 cell line; U937, 48 h, 10 μM",97%
same,% Caspase inhibition,"[2]; Saos-2, 24 h",0%
same,% Caspase inhibition,"[2]; Saos-2, 48 h",24%
"NC(=O)CN(CCc1ccc(Cl)cc1Cl)C(=O)C1CC(=O)N(CCc2ccc(Cl)cc2Cl)CC(=O)N1CCC(c1ccccc1)c1ccccc1 (stereo not drawn) [I.1, 1-[2-(2,4-Dichlorophenyl)ethyl]-4-(3,3-diphenylpropyl)-3,7-dioxo[1,4]-diazepane-5-carboxylic acid carbamoylmethyl-[2-(2,4-dichlorophenyl)-ethyl]amide]",inhibition at 1 µM,"Caspase activity, HeLa; 24 h",29%
same,inhibition at 5 µM,"Caspase activity, HeLa; 24 h",31%
same,inhibition at 1 µM,"Caspase activity, HeLa; 48 h",75%
same,inhibition at 5 µM,"Caspase activity, HeLa; 48 h",78%
same,inhibition at 1 µM,"Caspase activity, HeLa; 72 h",34%
same,inhibition at 5 µM,"Caspase activity, HeLa; 72 h",33%
same,inhibition at 1 µM,"[1]; U937, 24 h",0%
same,inhibition at 5 µM,"[1]; U937, 24 h",19%
same,inhibition at 1 µM,"[1]; U937, 48 h",14%
same,inhibition at 5 µM,"[1]; U937, 48 h",19%
same,inhibition at 1 µM,"[1]; U937, 72 h",12%
same,inhibition at 5 µM,"[1]; U937, 72 h",46%
same,inhibition at 1 µM,"Caspase activity, U2-OS; 24 h",0%
same,inhibition at 5 µM,"Caspase activity, U2-OS; 24 h",0%
same,inhibition at 1 µM,"Caspase activity, U2-OS; 48 h",58%
same,inhibition at 5 µM,"Caspase activity, U2-OS; 48 h",54%
same,inhibition at 1 µM,"Caspase activity, U2-OS; 72 h",1%
same,inhibition at 5 µM,"Caspase activity, U2-OS; 72 h",25%
same,% Cell viability,"Saos-2 cell line; Saos-2, 24 h, 1 μM",99%
same,% Cell viability,"Saos-2 cell line; Saos-2, 24 h, 5 μM",100%
same,% Cell viability,"Saos-2 cell line; Saos-2, 24 h, 10 μM",96% and 100%
same,% Cell viability,"Saos-2 cell line; Saos-2, 24 h, 25 μM",63%
same,% Cell viability,"Saos-2 cell line; Saos-2, 24 h, 50 μM",19%
same,% Cell viability,"Saos-2 cell line; Saos-2, 48 h, 1 μM",100% and 97%
same,% Cell viability,"Saos-2 cell line; Saos-2, 48 h, 5 μM",100% and 94%
same,% Cell viability,"Saos-2 cell line; Saos-2, 48 h, 10 μM",100% and 97%
same,% Cell viability,"Saos-2 cell line; Saos-2, 48 h, 25 μM",19%
same,% Cell viability,"Saos-2 cell line; Saos-2, 48 h, 50 μM",11%
same,% Cell viability,"Saos-2 cell line; Saos-2, 72 h, 1 μM",89%
same,% Cell viability,"Saos-2 cell line; Saos-2, 72 h, 5 μM",88%
same,% Cell viability,"Saos-2 cell line; Saos-2, 72 h, 10 μM",80%
same,% Cell viability,"Saos-2 cell line; Saos-2, 72 h, 25 μM",8%
same,% Cell viability,"U937 cell line; U937, 24 h, 1 μM",100%
same,% Cell viability,"U937 cell line; U937, 24 h, 5 μM",98% and 90%
same,% Cell viability,"U937 cell line; U937, 24 h, 10 μM",95% and 87%
same,% Cell viability,"U937 cell line; U937, 24 h, 25 μM",59%
same,% Cell viability,"U937 cell line; U937, 24 h, 50 μM",27%
same,% Cell viability,"U937 cell line; U937, 48 h, 1 μM",100%
same,% Cell viability,"U937 cell line; U937, 48 h, 5 μM",97% and 94%
same,% Cell viability,"U937 cell line; U937, 48 h, 10 μM",99% and 83%
same,% Cell viability,"U937 cell line; U937, 72 h, 1 μM",98%
same,% Cell viability,"U937 cell line; U937, 72 h, 5 μM",89%
same,% Cell viability,"U937 cell line; U937, 72 h, 10 μM",67%
same,inhibition at 1 µM,"[2]; Saos-2, 24 h",21%
same,inhibition at 1 µM,"[2]; Saos-2, 48 h",17%
same,inhibition at 1 µM,"[2]; Saos-2, 72 h",4%
